Source: US20020188132A1, “Heteroaryl acetylenic sulfonamide and phosphinic acid amide hydroxamic acid TACE inhibitors” (priority 1999, published 2002)

Assays:
Format in all cases: biochemical
TACE = TACE (Homo sapiens, UniProt P78536); test: TACE inhibition (fluorescent peptidyl substrate)
Procedure: Using 96-well black microtiter plates, each well receives a solution composed of 10 μL TACE (final concentration 1 μg/mL), 70 μL Tris buffer, pH 7.4 containing 10% glycerol (final concentration 10 mM), and 10 μL of test compound solution in DMSO (final concentration 1 μM, DMSO concentration <1%) and incubated for 10 minutes at room temperature. The reaction is initiated by addition of a fluorescent peptidyl substrate (final concentration 100 μM) to each well and then shaking on a shaker for 5 sec.
The reaction is read (excitation 340 nm, emission 420 nm) for 10 min. and the increase in fluorescence over time is plotted as a linear line. The slope of the line is calculated and represents the reaction rate.
The linearity of the reaction rate is confirmed (r^2>0.85). The mean (x±sem) of the control rate is calculated and compared for statistical significance (p<0.05) with drug-treated rates using Dunnett's multiple comparison test. Dose-response relationships can be generate using multiple doses of drug and IC50 values with 95% CI are estimated using linear regression.

MMP-1 = target: T1, MMP-1 (Homo sapiens, UniProt P03956); test: MMP-1 inhibition (thiopeptide or fluorescent peptide substrate)
T1 sequence (P03956 100-469): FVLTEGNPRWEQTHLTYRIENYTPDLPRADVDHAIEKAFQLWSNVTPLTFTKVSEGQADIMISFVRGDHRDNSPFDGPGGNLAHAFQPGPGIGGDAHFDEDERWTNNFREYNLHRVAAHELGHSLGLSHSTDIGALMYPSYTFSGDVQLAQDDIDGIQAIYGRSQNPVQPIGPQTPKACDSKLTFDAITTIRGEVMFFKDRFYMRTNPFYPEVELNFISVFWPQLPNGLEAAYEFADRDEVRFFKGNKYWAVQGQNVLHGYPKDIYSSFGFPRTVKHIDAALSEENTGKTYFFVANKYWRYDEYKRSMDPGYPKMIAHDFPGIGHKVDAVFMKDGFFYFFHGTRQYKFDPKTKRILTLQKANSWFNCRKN
Procedure: (§1) These standard pharmacological test procedures are based on the cleavage of a thiopeptide substrates such as Ac-Pro-Leu-Gly(2-mercapto-4-methyl-pentanoyl)-Leu-Gly-OEt by the matrix metalloproteinases MMP-1, MMP-13 (collagenases) or MMP-9 (gelatinase), which results in the release of a substrate product that reacts calorimetrically with DTNB (5,5′-dithiobis(2-nitro-benzoic acid)). The enzyme activity is measured by the rate of the color increase. The thiopeptide substrate is made up fresh as a 20 mM stock in 100% DMSO and the DTNB is dissolved in 100% DMSO as a 100 mM stock and stored in the dark at room temperature. […] The buffer, enzyme, vehicle or inhibitor, and DTNB/substrate are added in this order to a 96 well plate (total reaction volume of 200 μl) and the increase in color is monitored spectrophotometrically for 5 minutes at 405 nm on a plate reader and the increase in color over time is plotted as a linear line.
(§2) Alternatively, a fluorescent peptide substrate is used. […] Upon cleavage of the substrate by an MMP, the fluorescence that is generated is quantitated on the fluorescence plate reader. […] The reaction is read (excitation 340 nm, emission 444 nm) for 10 min. and the increase in fluorescence over time is plotted as a linear line.
(§3) For either the thiopeptide or fluorescent peptide test procedures, the slope of the line is calculated and represents the reaction rate. […]

MMP-9 = MMP-9 (Homo sapiens, UniProt P14780); test: MMP-9 inhibition (thiopeptide or fluorescent peptide substrate)
Procedure: as §1, §2, §3

MMP-13 = MMP-13 (Homo sapiens, UniProt P45452); test: MMP-13 inhibition (thiopeptide or fluorescent peptide substrate)
Procedure: as §1, §2, §3

Chain of TACE (P78536 215-824): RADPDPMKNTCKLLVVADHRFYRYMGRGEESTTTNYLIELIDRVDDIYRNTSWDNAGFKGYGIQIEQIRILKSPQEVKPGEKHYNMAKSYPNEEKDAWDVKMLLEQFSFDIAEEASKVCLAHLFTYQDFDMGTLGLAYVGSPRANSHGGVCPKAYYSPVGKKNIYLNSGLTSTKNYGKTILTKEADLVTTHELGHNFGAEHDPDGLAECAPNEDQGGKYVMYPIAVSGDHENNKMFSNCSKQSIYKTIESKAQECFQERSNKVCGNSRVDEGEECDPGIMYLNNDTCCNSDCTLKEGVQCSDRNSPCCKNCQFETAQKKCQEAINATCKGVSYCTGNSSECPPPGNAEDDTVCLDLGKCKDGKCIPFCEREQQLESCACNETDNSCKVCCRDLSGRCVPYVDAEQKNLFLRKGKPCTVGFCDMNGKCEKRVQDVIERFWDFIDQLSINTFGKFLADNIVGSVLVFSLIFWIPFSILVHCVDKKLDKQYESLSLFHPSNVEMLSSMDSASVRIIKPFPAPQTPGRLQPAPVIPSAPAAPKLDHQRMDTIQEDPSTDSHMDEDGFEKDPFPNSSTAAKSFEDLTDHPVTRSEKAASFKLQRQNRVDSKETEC
Chain of MMP-9 (P14780 94-707): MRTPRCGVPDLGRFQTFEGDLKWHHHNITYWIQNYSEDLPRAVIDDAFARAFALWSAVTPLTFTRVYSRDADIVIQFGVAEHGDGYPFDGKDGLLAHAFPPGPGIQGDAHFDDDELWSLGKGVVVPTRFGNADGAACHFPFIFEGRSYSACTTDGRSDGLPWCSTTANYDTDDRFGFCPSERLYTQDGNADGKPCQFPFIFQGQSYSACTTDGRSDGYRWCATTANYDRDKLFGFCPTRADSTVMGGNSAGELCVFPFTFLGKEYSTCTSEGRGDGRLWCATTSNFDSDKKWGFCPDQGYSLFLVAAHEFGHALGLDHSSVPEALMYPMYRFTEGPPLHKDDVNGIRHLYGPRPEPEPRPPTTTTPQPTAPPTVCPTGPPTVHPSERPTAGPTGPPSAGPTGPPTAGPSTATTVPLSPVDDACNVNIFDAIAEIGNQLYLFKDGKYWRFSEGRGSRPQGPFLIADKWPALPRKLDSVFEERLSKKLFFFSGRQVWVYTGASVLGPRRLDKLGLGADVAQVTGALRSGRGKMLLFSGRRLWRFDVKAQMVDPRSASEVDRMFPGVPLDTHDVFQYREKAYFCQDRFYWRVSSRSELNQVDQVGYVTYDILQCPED

IC50 (TACE) [nM] | IC50 (MMP-1) [nM] | IC50 (MMP-9) [nM] | IC50 (MMP-13) [nM] | SMILES
11 | ~10000 | 607 | 478 | CC#CCOc1ccc(S(=O)(=O)N(C)c2c(C(=O)NO)cc(OC)nc2OC)cc1 [Example 33, 3-[Methyl-(4-but-2-ynyloxy-benzenesulfonyl)-animo]-N-hydroxy-2,6-dimethoxy-isonicotinamide]
44 | – | – | – | CC#CCOc1ccc(S(=O)(=O)Nc2c(C(=O)NO)cc(OC)nc2OC)cc1 [Example 35, 3-(4-But-2-ynyloxy-benzenesulfonylamino)-N-hydroxy-2,6-dimethoxy-isonicotinamide]
